The text below walks through data of patent US12268666B2, “Spray-dried dispersions, formulations, and polymorphs of (S)-5-amino-3-(4-((5-fluoro-2-methoxybenzamido)methyl)phenyl)-1-(1,1,1-trifluoropropan-2-yl)-1H-pyrazole-4-carboxamide” (Loxo Oncology, Inc., priority 2018, dated 2025).

Where two headings read alike, the source gives them in different places.

One data set deals with T1, BTK wild type (Homo sapiens, UniProt Q06187).
T1 construct: expressed in transfected cells; host or cells: HEK293
T1 sequence (Q06187 whole entry): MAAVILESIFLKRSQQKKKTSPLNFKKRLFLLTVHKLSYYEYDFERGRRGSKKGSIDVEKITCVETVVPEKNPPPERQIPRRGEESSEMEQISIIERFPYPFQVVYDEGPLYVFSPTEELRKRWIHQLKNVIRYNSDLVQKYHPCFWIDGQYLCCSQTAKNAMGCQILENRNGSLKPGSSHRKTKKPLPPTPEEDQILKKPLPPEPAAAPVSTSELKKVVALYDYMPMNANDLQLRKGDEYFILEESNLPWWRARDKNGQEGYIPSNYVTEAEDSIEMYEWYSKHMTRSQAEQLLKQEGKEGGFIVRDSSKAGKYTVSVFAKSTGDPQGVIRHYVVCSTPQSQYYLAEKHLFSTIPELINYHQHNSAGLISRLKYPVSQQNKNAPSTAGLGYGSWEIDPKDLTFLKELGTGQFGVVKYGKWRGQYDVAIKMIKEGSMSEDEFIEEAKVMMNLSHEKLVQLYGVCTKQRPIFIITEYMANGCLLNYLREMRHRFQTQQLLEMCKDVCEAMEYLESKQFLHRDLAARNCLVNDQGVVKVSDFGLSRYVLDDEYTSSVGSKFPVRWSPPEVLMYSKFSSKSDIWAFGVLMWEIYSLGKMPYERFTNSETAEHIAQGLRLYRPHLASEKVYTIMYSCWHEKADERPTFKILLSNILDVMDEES
Description: Y223 autophosphorylation in HEK293 cells stably expressing BTK. Format: cell-based. As to conditions: 2 hr treatment, signal normalized to total BTK. The method, then: (§1) HEK293 cell lines stably expressing BTK wild type and the mutant form C481S are generated using standard transfection methods. For assessment of cellular inhibition potency, cells are grown in DMEM +10% Fetal Bovine Serum (FBS)+1 μg/ml puromycin (complete growth media) at 37° C. in a CO2 incubator. Cells are harvested according to standard protocols using TRYPLE™ (Gibco #12604-013), counted, resuspended in complete growth media, and added to 6 well assay plates at 4×10 ^5 cell/well in 2 mL. Plates are incubated overnight at 37° C. with 5% CO2. […] All samples are tested in triplicate. Following compound incubation, the growth medium is discarded, cells are washed with DPBS (1×) (Gibco #14190-144) and lysed in 1 mL of […]™ M (Sigma #C2978) containing 1× Halt phosphatase and protease inhibitor cocktails (Pierce #78442). Plates are placed on ice for 1 hr with gentle agitation and stored at −80° C. overnight. The next day, cell lysates are placed in 1.5 mL tubes and cleared by centrifugation at 16,000×g for 10 min at 4° C. Supernatants are quantified by BCA (Pierce #23225) and stored at −80° C. Samples are analyzed by Simple Western (Protein Simple) with anti-phospho-BTK (Y223) (Cell Signaling Technologies (CST) #5082) and anti-BTK (CST #8547) (FIGS. 10A and 10B). β-actin is used as a loading control and detected by regular Western blot with an anti-3-actin antibody (CST #4970).

The next data set deals with T2, BTK (Homo sapiens, UniProt Q06187).
T2 construct: host or cells: Ramos RA1
T2 sequence (Q06187 whole entry): as above
Put plainly: BTK Y223 autophosphorylation in Ramos RA1 cells. Format: cell-based. The note with it: anti-human IgM stimulation. As for the experimental part:
(§2) Ramos RA1 cells, obtained from ATCC (CRL-1596), are grown in RPMI 1640+10% fetal bovine serum (FBS) at 37° C. in a CO2 incubator. […] Nine hundred μL of cell/well are added to 24 well plates and 100 uL of 10× stocks of inhibitor are added. The 10× compound of Formula I stocks are prepared in 1% DMSO, by doing a 1:3 dilution series with final concentrations in the wells ranging between 900 nM to 0.41 nM. […] All samples are tested in triplicate. After 2 hours (starvation and dosing) sodium orthovanadate is added to a final concentration of 200 μM and incubated for 30 more min. Cells are then stimulated with 4 uL of goat F(ab′)2 anti-human IgM (Jackson ImmunoResearch #109-006-129) for 5 min at room temperature, spun down, resuspended in 100 uL of […]™ M (Sigma #C2978) containing 5× Halt phosphatase and protease inhibitor cocktails (Pierce #78442), and stored at −80° C. Lysates are quantified by BCA (Pierce #23225) and analyzed by Simple Western (Protein Simple) with the following antibodies: anti-phospho-BTK (Y223) (Cell Signaling Technologies (CST) #5082), anti-BTK (CST #8547), anti-phospho-PLCγ2 (Y1217) (CST 3871), anti-PLCγ2 (CST 3872), and anti-GAPDH (GAPDH refers to glyceraldehyde 3-phosphate dehydrogenase) (Novus #MAB5718-SP). […] Results are analyzed with Compass software (Protein Simple), and IC50 values are calculated on GraphPad Prism 7.04 software.

The next data set has as its target BTK C481S (Homo sapiens, UniProt Q06187, C481S). Put plainly: Y223 autophosphorylation in HEK293 cells stably expressing BTK C481S. The note with it: C481S mutant, 2 hr treatment, signal normalized to total BTK. Further details: expressed in transfected cells; host or cells: HEK293. Format: cell-based. The method, then:
as §1

Data set [1] concerns OCI-Ly10 human B-cell lymphoma cell line xenograft. Put plainly: Tumor growth inhibition in OCI-Ly10 xenografts. Format: in vivo, male NOD SCID mice. As to conditions: for tumor growth during the dosing period: oral, 28 days. As for the experimental part: A total of 65 male NOD-SCIO mice are used for the study. At the start of the study the animals are aged 6-8 weeks and weighed approximately 21-27 g. Animals are housed in IVC cages (up to 5 per cage) with individual mice identified by tail marking. All animals are allowed free access to a standard certified commercial diet and sanitized water during the study. The holding room is maintained under standard conditions: 20-24° C., 40-70% humidity and a 12 hr light/dark cycle. Animals are randomly assigned to treatment groups. OCI-Lyl0 cells are implanted subcutaneously into the flanks of male NOD SCID mice and allowed to grow to a volume of approximately 150-200 mm^3. […] The formulation used is 0.5% hydroxypropyl methylcellulose. The dosing volume is 10 mL/kg. An individual animal's dose is calculated from the bodyweight recorded on the day of dosing. Animals are dosed for 28 days. Bodyweight and health observation of animals is recorded daily for the duration of dosing.
Tumor volume is measured three times per week during the study.

Data set [2] has as its target T3, full-length wild type (WT) human BTK (Homo sapiens, UniProt Q06187).
T3 construct: against full-length wild type (WT) and mutant human BTK enzymes
Description: BTK activity assay, [33P]-ATP incorporation into poly-EY. Format: biochemical. As for the experimental part: The activity of the compound of Formula I against full-length wild type (WT) and mutant human BTK enzymes is determined by monitoring the incorporation [^33P]-PO4 from [γ-^33P]-ATP into poly-glutamic acid-tyrosine (poly-EY) peptide substrate. The reaction mixtures each contained polyhistidine-tagged BTK enzyme, poly-EY and BTK inhibitor at the appropriate concentrations. The reaction mixtures are incubated for 20 minutes at room temperature after which [[γ-^33P]-ATP (radiochemical concentration 10 μCi/μL) at 10 μM or the ATP Km concentration for each enzyme is added. After 2 hours of incubation at room temperature, the radiolabeled peptide substrate is captured, and incorporated radioactivity is quantified.
Each assay is performed at an ATP concentration close to the Km for each enzyme. […] After co-incubation with a serial dilution of the compound of Formula I, the quantity of ^33P incorporated into a peptide substrate is measured and the data analyzed using standard curve fitting methods.

A short description of data set [3]: Kinetic solubility in FaSSGF, FaSSIF and FeSSIF media. Format: physicochemical. As to conditions: kinetic from dmso stock. The method, then:
The solubility of the compound of Formula I is also tested under conditions that simulate gut fluids (Fasted State Simulated Intestinal Fluid [FaSSIF], Fed State Simulated Intestinal Fluid [FeSSIF], and Fasted State Simulated Gastric Fluid [FaSSGF]) as shown in Table 9.

For the next data set, the system named is PLCγ2. Description: PLCγ2 Y1217 phosphorylation in Ramos RA1 cells. Format: cell-based. As to conditions: anti-human IgM stimulation. The method, then:
as §2

[4] abbreviates: FaSSGF (Fasted State Simulated Gastric Fluid), fassgf or other biorelevant, pH 1.6 FaSSGF.
[5] abbreviates: FaSSIF (Fasted State Simulated Intestinal Fluid), pH 6.5 FaSSIF.
Setting [6] is: FeSSIF (Fed State Simulated Intestinal Fluid), pH 6.5 FeSSIF.

T3 sequence (Q06187 whole entry): as above
Chain of BTK C481S (Q06187 whole entry C481S): as the sequence (Q06187 whole entry) above, with C481S counted along it

By IC50 is commonly meant the concentration that gives 50% inhibition. By solubility (kinetic) is commonly meant the concentration staying in solution when a stock, usually in DMSO, is diluted into the medium. For the compound `COc1ccc(F)cc1C(=O)NCc1ccc(-c2nn([C@@H](C)C(F)(F)F)c(N)c2C(N)=O)cc1` [compound of Formula I, (S)-5-amino-3-(4-((5-fluoro-2-methoxybenzamido)methyl)phenyl)-1-(1,1,1-trifluoropropan-2-yl)-1H-pyrazole-4-carboxamide], the IC50 on BTK wild type was 8.6 ± 0.3 nM; against BTK it was 3.2 ± 0.6 nM; against BTK C481S, 8.8 ± 1.8 nM; in data set [2] (10 μM ATP, read-out: IC50), 0.95 nM; in data set [2] (ATP at Km concentration, read-out: IC50 value), 3.15 nM; in the data set with PLCγ2, 8.2 nM. The “tumor growth during the dosing period” value in data set [1] (10 mg/kg BID) and in data set [1] (50 mg/kg BID) was “inhibition of tumor growth” in each case. Further, the “tumor size compared with ibrutinib-treated animals” value was “significantly smaller than those from animals treated with ibrutinib” in data set [1] (10 mg/kg BID, p=0.0008, ANOVA with Tukey post-hoc test) and “significantly smaller than those from animals treated with ibrutinib” in data set [1] (50 mg/kg BID, p<0.0001, ANOVA with Tukey post-hoc test). Also, in data set [1] (after the 28-day dosing period), the “tumor growth after dosing had stopped” value is “maintained even after dosing had stopped”. Further, the solubility (kinetic) at 4 h in data set [3] (setting [4]) was 0.022 mg/mL; in data set [3] (setting [5]), 0.023 mg/mL; in data set [3] (setting [6]), 0.044 mg/mL. The solubility (kinetic) at 24 h in data set [3] (setting [4]) was 0.024 mg/mL; in data set [3] (setting [5]), 0.02 mg/mL; in data set [3] (setting [6]) it was 0.047 mg/mL.
